ChEMBL document CHEMBL6134844, “Development of Next-Generation Antimalarial Acridones with Radical Cure Potential” (J Med Chem, 2025)
Activity calls are given as the source filed them. The rule behind the calls is not given here.

Legend:
Plasmodium falciparum [1] = test: Antiplasmodial activity against asexual blood-stage (ABS) CQ-sensitive Plasmodium falciparum D6 infected in human erythrocytes assessed as reduction in fluorescence measured after 72 hrs by Malaria SYBR Green I-based Fluorescence (MSF) assay; assay type: functional, organism-based; conditions: D6, Erythrocyte
Plasmodium falciparum [2] = test: Antiplasmodial activity against asexual blood-stage (ABS) ATV-resistant clinical isolate Plasmodium falciparum Tm90-C2B infected in human erythrocytes assessed as reduction in fluorescence measured after 72 hrs by Malaria SYBR Green I-based Fluorescence (MSF) assay; assay type: functional, organism-based; conditions: Erythrocyte
HepG2 = test: Cytotoxicity against human HepG2 cells assessed as cell viability measured after 48 hrs by MTT assay; assay type: functional, cell-based; conditions: HepG2, 48 h
Plasmodium cynomolgi [3] = test: Antiplasmodial activity against hypnozoite Plasmodium cynomolgi B strain infected in Macaca mulatta hepatocytes incubated with sporozoite containing salivary gland homogenate obtained from dissected Anopheles dirus mosquitoes (infected with Plasmodium cynomolgi B strain) treatment started on day 4 post infection and continued daily for 4 days into fresh changed media until day 8 assessed as Liver stage (LS) activity by measuring prophylactic mode by immunofluorescent staining analysis; assay type: functional, organism-based; conditions: Hepatocyte
Plasmodium cynomolgi [4] = test: Antiplasmodial activity against schizont Plasmodium cynomolgi B strain infected in Macaca mulatta hepatocytes incubated with sporozoite containing salivary gland homogenate obtained from dissected Anopheles dirus mosquitoes (infected with Plasmodium cynomolgi B strain) treatment started on day 4 post infection and continued daily for 4 days into fresh changed media until day 8 assessed as Liver stage (LS) activity by measuring prophylactic mode by immunofluorescent staining analysis; assay type: functional, organism-based; conditions: Hepatocyte
Plasmodium cynomolgi [5] = test: Antiplasmodial activity against hypnozoite Plasmodium cynomolgi B strain infected in Macaca mulatta hepatocytes incubated with sporozoite containing salivary gland homogenate obtained from dissected Anopheles dirus mosquitoes (infected with Plasmodium cynomolgi B strain) treatment started on day 4 post infection and continued daily for 4 days into fresh changed media until day 8 assessed as Liver stage (LS) activity by measuring radical cure mode by immunofluorescent staining analysis; assay type: functional, organism-based; conditions: Hepatocyte
Plasmodium cynomolgi [6] = test: Antiplasmodial activity against schizont Plasmodium cynomolgi B strain infected in Macaca mulatta hepatocytes incubated with sporozoite containing salivary gland homogenate obtained from dissected Anopheles dirus mosquitoes (infected with Plasmodium cynomolgi B strain) treatment started on day 4 post infection and continued daily for 4 days into fresh changed media until day 8 assessed as Liver stage (LS) activity by measuring radical cure mode by immunofluorescent staining analysis; assay type: functional, organism-based; conditions: Hepatocyte
[7] = Selectivity index, ratio of CC50 for Macaca mulatta hepatocytes to IC50 for antiplasmodial activity against hypnozoite Plasmodium cynomolgi B strain infected in Macaca mulatta hepatocytes incubated with sporozoite containing salivary gland homogenate obtained from dissected Anopheles dirus mosquitoes (infected with Plasmodium cynomolgi B strain) treatment started on day 4 post infection and continued daily for 4 days into fresh changed media until day 8 assessed as Liver stage (LS) activity by measuring prophylactic mode by immunofluorescent staining analysis; assay type: toxicity, cell-based; conditions: rhesus monkey, read-out: Selectivity Index
[8] = Selectivity index, ratio of CC50 for Macaca mulatta hepatocytes to IC50 for antiplasmodial activity against schizont Plasmodium cynomolgi B strain infected in Macaca mulatta hepatocytes incubated with sporozoite containing salivary gland homogenate obtained from dissected Anopheles dirus mosquitoes (infected with Plasmodium cynomolgi B strain) treatment started on day 4 post infection and continued daily for 4 days into fresh changed media until day 8 assessed as Liver stage (LS) activity by measuring prophylactic mode by immunofluorescent staining analysis; assay type: toxicity, cell-based; conditions: rhesus monkey, read-out: Selectivity Index
[9] = Selectivity index, ratio of CC50 for Macaca mulatta hepatocytes to IC50 for antiplasmodial activity against schizont Plasmodium cynomolgi B strain infected in Macaca mulatta hepatocytes incubated with sporozoite containing salivary gland homogenate obtained from dissected Anopheles dirus mosquitoes (infected with Plasmodium cynomolgi B strain) treatment started on day 4 post infection and continued daily for 4 days into fresh changed media until day 8 assessed as Liver stage (LS) activity by measuring radical cure mode by immunofluorescent staining analysis; assay type: toxicity, cell-based; conditions: rhesus monkey, read-out: Selectivity Index
[10] = Cmax in male ICR-CD1 mouse liver at 40 mg/kg, po; assay type: ADME, organism-based
[11] = Cmax in male ICR-CD1 mouse plasma at 40 mg/kg, po; assay type: ADME, organism-based
[12] = Tmax in male ICR-CD1 mouse liver at 40 mg/kg, po; assay type: ADME, organism-based
[13] = Tmax in male ICR-CD1 mouse plasma at 40 mg/kg, po; assay type: ADME, organism-based
[14] = Half life in male ICR-CD1 mouse liver at 40 mg/kg, po; assay type: ADME, organism-based
[15] = AUClast in male ICR-CD1 mouse liver at 40 mg/kg, po; assay type: ADME, organism-based
[16] = AUCextrap in male ICR-CD1 mouse liver at 40 mg/kg, po; assay type: ADME, organism-based
[17] = AUC(0 to infinity) in male ICR-CD1 mouse liver at 40 mg/kg, po; assay type: ADME, organism-based
Plasmodium yoelii = test: In vivo antiplasmodial activity against asexual blood-stage (ABS) Plasmodium yoelii MRA-428 infected in 4-day suppression CF1 mouse model assessed as reduction in parasitemia by measuring cured mouse at 100 mg/kg, po single dose treated 24 hrs post infection; assay type: functional, organism-based
[18] = Toxicity in CF1 mouse infected with asexual blood-stage (ABS) Plasmodium yoelii MRA-428 assessed as behavioural change at 0.3 to 30 mg/kg, po treated 24 hrs post infection measured after 4 days; assay type: organism-based; conditions: in vivo, dose 0.3-30 mg/kg
Plasmodium berghei [19] = test: In vivo antiplasmodial activity against luciferase expressing liver stage Plasmodium berghei ANKA MRA-868 sporozoites infected in Albino C57BL/6 mouse model assessed as protection at 10 mg/kg, po daily measured 24 to 72 hrs by real-time In Vivo Imaging System (IVIS); assay type: functional
Plasmodium berghei [20] = test: In vivo antiplasmodial activity against luciferase expressing liver stage Plasmodium berghei ANKA MRA-868 sporozoites infected in Albino C57BL/6 mouse model assessed as visible parasites at 40 mg/kg, po daily measured 24 to 48 hrs by real-time In Vivo Imaging System (IVIS); assay type: functional, organism-based; conditions: time 24-48 hrs
[21] = Toxicity in CF1 mouse infected with asexual blood-stage (ABS) Plasmodium yoelii MRA-428 assessed as hyperactivity at 0.3 to 30 mg/kg, po treated 24 hrs post infection measured after 4 days; assay type: organism-based; conditions: in vivo, 96 h, dose 0.3-30 mg/kg, time 4 day
[22] = Toxicity in CF1 mouse infected with asexual blood-stage (ABS) Plasmodium yoelii MRA-428 assessed as lethargy at 0.3 to 30 mg/kg, po treated 24 hrs post infection measured after 4 days; assay type: organism-based; conditions: in vivo, 96 h, dose 0.3-30 mg/kg, time 4 day
[23] = Toxicity in CF1 mouse infected with asexual blood-stage (ABS) Plasmodium yoelii MRA-428 assessed as ruffled hair at 0.3 to 30 mg/kg, po treated 24 hrs post infection measured after 4 days; assay type: organism-based; conditions: in vivo, 96 h, dose 0.3-30 mg/kg, time 4 day
[24] = Toxicity in CF1 mouse infected with asexual blood-stage (ABS) Plasmodium yoelii MRA-428 assessed as weight loss at 0.3 to 30 mg/kg, po treated 24 hrs post infection measured after 4 days; assay type: organism-based; conditions: in vivo, 96 h, dose 0.3-30 mg/kg, time 4 day
[25] = Mutagenicity in Salmonella typhimurium TA100 assessed as background reversion rate up to 10 uM with S-9 metabolic activation by AMES test; assay type: toxicity; conditions: salmonella enterica subsp. enterica serovar typhimurium
[26] = Mutagenicity in Salmonella typhimurium TA98 assessed as background reversion rate up to 10 uM with S-9 metabolic activation by AMES test; assay type: toxicity; conditions: salmonella enterica subsp. enterica serovar typhimurium
[27] = Mutagenicity in Salmonella typhimurium TA98 assessed as background reversion rate up to 10 uM without S-9 metabolic activation by AMES test; assay type: toxicity; conditions: salmonella enterica subsp. enterica serovar typhimurium
Hepatocyte = test: Cytotoxicity against Macaca mulatta hepatocytes assessed as cell viability measured after 48 hrs by MTT assay; assay type: toxicity, cell-based; conditions: rhesus monkey, 48 h
[28] = mouse, microsomes, 1 h

Structure (SMILES)	IC50 (Plasmodium falciparum [1])	IC50 (Plasmodium falciparum [2])	IC50 (HepG2)	IC50 (Plasmodium cynomolgi [3])	IC50 (Plasmodium cynomolgi [4])	IC50 (Plasmodium cynomolgi [5])	IC50 (Plasmodium cynomolgi [6])	selectivity ratio at 96 h [7]	selectivity ratio at 96 h [8]	selectivity ratio at 96 h [9]	Cmax [10]	Cmax [11]	Tmax [12]	Tmax [13]	half-life [14]	AUC(0-t) [15]	AUC [16]	AUC(0-inf) [17]	Activity (Plasmodium yoelii)	Activity [18]	also measured
O=c1c2c([nH]c3cc(Oc4ccc(OC(F)(F)F)cc4)c(F)cc13)CCCC2	0.015 nM	0.384 nM	> 200000 nM	600 nM	100 nM	2080 nM	2410 nM	5.18	31.1	1.29	654 ng/mL	42.1 ng/mL	0.5 h	1 h	4.3 h	5470 ng·h/mL	0.603%	5510 ng·h/mL	Active	Non-toxic	Activity (Plasmodium berghei [19]; time lower 24.0 hrs, time upper […]): Not active; Out Of 5 - 0 Mouse Cured; Activity (Plasmodium berghei [20]): Active; Activity [21]: Non-toxic; Activity [22]: Non-toxic; Activity [23]: Non-toxic; Activity [24]: Non-toxic; Activity [25]: Non-toxic; Activity [26]: Non-toxic; Activity [27]: Non-toxic; CC50 (Hepatocyte): 3110 nM; CLH [28]: 74.9 µL/min/mg
O=c1c2c([nH]c3cc(Oc4ccc(OC(F)(F)F)cc4)ccc13)CCCC2	0.31 nM	0.295 nM	99400 nM	340 nM	130 nM	550 nM	380 nM	1.79	4.69	1.61	6080 ng/mL	83 ng/mL	4 h	1 h	2.84 h	32900 ng·h/mL	0.12%	33000 ng·h/mL	Active	Non-toxic	Activity (Plasmodium berghei [19]; time 24-72 hrs): 100%; Activity (Plasmodium berghei [20]): Active; Activity [21]: Non-toxic; Activity [22]: Non-toxic; Activity [23]: Non-toxic; Activity [24]: Non-toxic; Activity [25]: Non-toxic; Activity [26]: Non-toxic; Activity [27]: Non-toxic; CC50 (Hepatocyte): 610 nM; CLH [28]: 117 µL/min/mg
